Source: patent publication US20090044345A1, “Use of Metal Complex Compounds as Oxidation Catalysts” (priority 2006, published 2009)

Key:
[1] = Stain bleaching in laundry at 40° C.; design: key: CIE brightness increase of stain vs. reference run without catalyst; settings: tea-stained cotton; 10 mmol/l hydrogen peroxide; catalyst 20 μmol/l; IEC 60456 A* detergent 7.5 g/l; LINITEST 30 minutes at 40° C.; relative to no catalyst
Experimental: 7.5 g of white cotton fabric and 2.5 g of tea-stained cotton fabric were treated in 80 ml of washing liquor. The liquor contained a standard detergent (IEC 60456 A*) in a concentration of 7.5 g/l. The hydrogen peroxide concentration was 10 mmol/l. The catalyst concentration (1:1 in-situ complex of the ligand with manganese(II) chloride tetrahydrate in methanolic solution) was 20 μmol/l. The washing process was carried out in a steel beaker in a LINITEST apparatus for 30 minutes at 40° C. To evaluate the bleaching results, the increase in brightness ΔΔY of the stains relative to reference experiments without the addition of catalyst (brightness according to CIE) was determined spectrophotometrically.

[2] = Stain bleaching in laundry with peracetic acid as oxidant, tea stain; settings: peracetic acid 3 mmol/l; catalyst 10 μmol/l; IEC 60456* washing agent 7.5 g/l; 50 minutes at ambient temperature; vs. absence of catalyst
Experimental: (§1) 1 g of a circular stain (BC01 Tea, CFT; WFK 0.0 Carrot juice, WFK; CS20/2 Tomato, CFT; BC04 Curry, CFT) was added into a vial with 3 ml washing liquor. The liquor contained a standard washing agent (IEC 60456*) in a concentration of 7.5 g/l. The peracetic acid concentration was 3 mmol/l. The catalyst concentration (1:1 in-situ complex of the ligand with manganese(II) chloride tetrahydrate or iron (ii) chloride in methanolic solution) was 10 μmol/l. The vial was shaken with a shaker for 50 minutes at ambient temperature. After the treatment the fabric was carefully rinsed and ironed. The brightness values Y according to the CIE standard procedure of the stained test fabrics were measured with a Gretag SPM 100 instrument prior to and after the treatment, respectively. The bleaching effect is given as ΔΔY, i.e. the difference between the brightness of the fabrics washed in presence vs. the absence of a catalyst, respectively.

[3] = Stain bleaching in laundry with peracetic acid as oxidant, tomato stain; settings: peracetic acid 3 mmol/l; catalyst 10 μmol/l; IEC 60456* washing agent 7.5 g/l; 50 minutes at ambient temperature; vs. absence of catalyst
Experimental: as §1

[4] = Stain bleaching in laundry at ambient temperature (hydrogen peroxide), tea stain; design: key: CIE brightness Y difference: washed with catalyst minus without; settings: 10 mmol/l hydrogen peroxide; catalyst 25 μmol/l; IEC 60456* washing agent 7.5 g/l; 50 minutes at ambient temperature; brightness vs. absence of catalyst
Experimental: as §1, with “CFT; WFK10.0” for “CFT; WFK 0.0”, “The hydrogen peroxide” for “The peracetic acid”, “was 10” for “was 3”, “was 25” for “was 10”, “presence and in” for “presence vs.”

[5] = Stain bleaching in laundry at ambient temperature (hydrogen peroxide), curry stain; design: key: CIE brightness Y difference: washed with catalyst minus without; settings: 10 mmol/l hydrogen peroxide; catalyst 25 μmol/l; IEC 60456* washing agent 7.5 g/l; 50 minutes at ambient temperature; brightness vs. absence of catalyst
Experimental: as §1, with “CFT; WFK10.0” for “CFT; WFK 0.0”, “The hydrogen peroxide” for “The peracetic acid”, “was 10” for “was 3”, “was 25” for “was 10”, “presence and in” for “presence vs.”

[6] = Stain bleaching in laundry at ambient temperature (hydrogen peroxide), carrot juice stain; design: key: CIE brightness Y difference: washed with catalyst minus without; settings: 10 mmol/l hydrogen peroxide; catalyst 25 μmol/l; IEC 60456* washing agent 7.5 g/l; 50 minutes at ambient temperature; brightness vs. absence of catalyst
Experimental: as §1, with “CFT; WFK10.0” for “CFT; WFK 0.0”, “The hydrogen peroxide” for “The peracetic acid”, “was 10” for “was 3”, “was 25” for “was 10”, “presence and in” for “presence vs.”

[7] = Stain bleaching in laundry with peracetic acid as oxidant, curry stain; settings: peracetic acid 3 mmol/l; catalyst 10 μmol/l; IEC 60456* washing agent 7.5 g/l; 50 minutes at ambient temperature; vs. absence of catalyst
Experimental: as §1

[8] = Stain bleaching in laundry at ambient temperature (hydrogen peroxide), tomato stain; design: key: CIE brightness Y difference: washed with catalyst minus without; settings: 10 mmol/l hydrogen peroxide; catalyst 25 μmol/l; IEC 60456* washing agent 7.5 g/l; 50 minutes at ambient temperature; brightness vs. absence of catalyst
Experimental: as §1, with “CFT; WFK10.0” for “CFT; WFK 0.0”, “The hydrogen peroxide” for “The peracetic acid”, “was 10” for “was 3”, “was 25” for “was 10”, “presence and in” for “presence vs.”

[9] = Dishwashing: removal of tea deposit from tea-stained cups (IKW method); design: key: visual scale 0 = unchanged, very strong deposit to 10 = no deposit; settings: visual scale 0 (very strong deposit) to 10 (no deposit); carbonate buffer pH 9.6, 44 mM hydrogen peroxide, 20 μM catalyst, 15 minutes; reference without catalyst 4.5
Experimental: Tea-stained cups were prepared according to the IKW method (IKW-Arbeitskreis Maschinenspülmittel, “Methoden zur Bestimmung der Reinigungsleistung von maschinellen Geschirrspülmitteln (Part A and B)”, SÖFW, 11+14, 1998). Tea-stained cups were filled with a carbonate buffer solution (pH 9.6) containing 44 mM hydrogen peroxide and 20 μM catalyst (1:1 in-situ complex of the ligand with manganese(II) chloride tetrahydrate in methanolic solution). After 15 minutes the solution was removed, and the cups were rinsed with water. The removal of the tea deposit was evaluated visually on a scale from 0 (i.e. unchanged, very strong deposit) to 10 (i.e. no deposit).

[10] = Stain bleaching in laundry with peracetic acid as oxidant, carrot juice stain; settings: peracetic acid 3 mmol/l; catalyst 10 μmol/l; IEC 60456* washing agent 7.5 g/l; 50 minutes at ambient temperature; vs. absence of catalyst
Experimental: as §1

| Compound | ΔΔY [1] | ΔΔY (Tea) [2] | ΔΔY (Tomato) [3] | ΔΔY (Tea) [4] | ΔY Δ(Curry) [5] | ΔΔY (Carrot Juice) [6] | ΔΔY (Curry) [7] | ΔΔY (Tomato) [8] | Rating [9] | ΔΔY (Carrot Juice) [10] |
| --- | --- | --- | --- | --- | --- | --- | --- | --- | --- | --- |
| CN(Cc1cc(N(C)C)ccn1)Cc1cc(O)cc(-c2cc(N3CCCC3)ccn2)n1 [Ligand 32-Mn, 6-{[(4-dimethylamino-pyridin-2-ylmethyl)-methyl-amino]-methyl}-4′-pyrrolidin-1-yl-[2,2′]bipyridinyl-4-ol] | 4.5 | 5.6 | 1.2 | 6.4 | 8.5 | 3.1 | 5.3 | 5.6 | 6.0 | 2.5 |
| CN(Cc1ccccn1)Cc1cc(O)cc(-c2cc(N3CC[N+](C)(C)CC3)ccn2)n1.[I-] [Ligand 30-Mn, 4-{4′-hydroxy-6′-[(methyl-pyridin-2-ylmethyl-amino)-methyl]-[2,2′]bipyridinyl-4-yl}-1,1-dimethyl-piperazin-1-ium iodide] | 4.5 | – | – | 7.0 | 7.1 | 3.6 | – | 7.4 | 7.8 | – |
| CN(Cc1ccccn1)Cc1cc(O)cc(-c2cc(N3CCCC3)ccn2)n1 [Ligand 27-Mn, 6-[(methyl-pyridin-2-ylmethyl-amino)-methyl]-4′-pyrrolidin-1-yl-[2,2′]bipyridinyl-4-ol] | 2.7 | – | – | 5.3 | 8.2 | 1.3 | – | 4.7 | 6.7 | – |
| CN(Cc1cc(-n2cccc2)ccn1)Cc1cc(O)cc(-c2cc(N(C)C)ccn2)n1 [Ligand 40c-Mn, 4′-dimethylamino-6-{[methyl-(4-pyrrol-1-yl-pyridin-2-ylmethyl)-amino]-methyl}-[2,2′]bipyridinyl-4-ol] | 2.2 | – | – | 3.9 | 4.9 | 2.5 | – | 1.3 | 6.8 | – |
| CN(Cc1cc(N(C)C)ccn1)Cc1cc(N(C)C)cc(-c2cc(N(C)C)ccn2)n1 [Ligand 40b-Mn] | 1.0 | – | – | 1.7 | 3.7 | 2.7 | – | 2.3 | 5.8 | – |
| CN(Cc1ccccn1)Cc1cc(O)cc(-c2ccccn2)n1 [Ligand 23-Mn, 6-[(methyl-pyridin-2-ylmethyl-amino)-methyl]-[2,2′]bipyridinyl-4-ol] | 2.1 | – | – | 2.9 | 7.4 | 1.3 | – | 0.6 | 6.0 | – |
| CN(Cc1cc(N(C)C)ccn1)Cc1cc(O)cc(-c2cc(N(C)CCO)ccn2)n1 [Ligand 33-Mn, 6-{[(4-dimethylamino-pyridin-2-ylmethyl)-methyl-amino]-methyl}-4′-[(2-hydroxy-ethyl)-methyl-amino]-[2,2′]bipyridinyl-4-ol] | 3.9 | 6.1 | 1.5 | 5.5 | 9.1 | 3.9 | 5.7 | 6.0 | 7.1 | 3.4 |
| COc1c(C)cnc(CN(C)Cc2cc(O)cc(-c3cc(N4CCCC4)ccn3)n2)c1C [Ligand 36-Mn, 6-{[(4-methoxy-3,5-dimethyl-pyridin-2-ylmethyl)-methyl-amino]-methyl}-4′-pyrrolidin-1-yl-[2,2′]bipyridinyl-4-ol] | 1.6 | – | – | 4.0 | 6.3 | 3.3 | – | 4.9 | 6.9 | – |
| CN1CCN(c2ccnc(-c3cc(O)cc(CN(C)Cc4ccccn4)n3)c2)CC1 [Ligand 29/Fe, 4′-(4-methyl-piperazin-1-yl)-6-[(methyl-pyridin-2-ylmethyl-amino)-methyl]-[2,2′]bipyridinyl-4-ol] | 5.0 | – | – | – | – | – | – | – | – | – |
| CN(Cc1cc(N(C)C)ccn1)Cc1cc(O)cc(-c2cc(N(C)C)ccn2)n1 [Ligand 40a-Mn, 4′-dimethylamino-6-{[(4-dimethylamino-pyridin-2-ylmethyl)-methyl-amino]-methyl}-[2,2′]bipyridinyl-4-ol] | 3.0 | 7.0 | 3.5 | 7.0 | 3.0 | 5.0 | 6.4 | 5.0 | 5.9 | 1.6 |
| CN(Cc1cc(N2CCCC2)ccn1)Cc1cc(O)cc(-c2cc(N3CCCC3)ccn2)n1 [Ligand 39-Mn, 6-{[methyl-(4-pyrrolidin-1-yl-pyridin-2-ylmethyl)-amino]-methyl}-4′-pyrrolidin-1-yl-[2,2′]bipyridinyl-4-ol] | 4.0 | – | – | 5.1 | 7.9 | 4.2 | – | 8.8 | 6.3 | – |
| CN1CCN(c2ccnc(-c3cc(O)cc(CN(C)Cc4ccccn4)n3)c2)CC1 [Ligand 29-Mn, 4′-(4-methyl-piperazin-1-yl)-6-[(methyl-pyridin-2-ylmethyl-amino)-methyl]-[2,2′]bipyridinyl-4-ol] | – | – | – | 6.4 | 8.3 | 3.1 | – | 4.4 | 6.1 | – |
